Laboratory results: ChEMBL document CHEMBL1148809, “Biological evaluation, structure-activity relationships, and three-dimensional quantitative structure-activity relationship studies of dihydro-beta-agarofuran sesquiterpenes as modulators of P-glycoprotein-dependent multidrug resistance” (J Med Chem, 2007)

Tests used:
[1] = target: ATP-dependent translocase ABCB1 (Homo sapiens, UniProt P08183); assay: (§1) Inhibition of human Pgp-mediated DNR transport in NIH3T3 cells by microplate assay; type: cell-based, Mus musculus
Sequence of ATP-dependent translocase ABCB1 (P08183 whole entry): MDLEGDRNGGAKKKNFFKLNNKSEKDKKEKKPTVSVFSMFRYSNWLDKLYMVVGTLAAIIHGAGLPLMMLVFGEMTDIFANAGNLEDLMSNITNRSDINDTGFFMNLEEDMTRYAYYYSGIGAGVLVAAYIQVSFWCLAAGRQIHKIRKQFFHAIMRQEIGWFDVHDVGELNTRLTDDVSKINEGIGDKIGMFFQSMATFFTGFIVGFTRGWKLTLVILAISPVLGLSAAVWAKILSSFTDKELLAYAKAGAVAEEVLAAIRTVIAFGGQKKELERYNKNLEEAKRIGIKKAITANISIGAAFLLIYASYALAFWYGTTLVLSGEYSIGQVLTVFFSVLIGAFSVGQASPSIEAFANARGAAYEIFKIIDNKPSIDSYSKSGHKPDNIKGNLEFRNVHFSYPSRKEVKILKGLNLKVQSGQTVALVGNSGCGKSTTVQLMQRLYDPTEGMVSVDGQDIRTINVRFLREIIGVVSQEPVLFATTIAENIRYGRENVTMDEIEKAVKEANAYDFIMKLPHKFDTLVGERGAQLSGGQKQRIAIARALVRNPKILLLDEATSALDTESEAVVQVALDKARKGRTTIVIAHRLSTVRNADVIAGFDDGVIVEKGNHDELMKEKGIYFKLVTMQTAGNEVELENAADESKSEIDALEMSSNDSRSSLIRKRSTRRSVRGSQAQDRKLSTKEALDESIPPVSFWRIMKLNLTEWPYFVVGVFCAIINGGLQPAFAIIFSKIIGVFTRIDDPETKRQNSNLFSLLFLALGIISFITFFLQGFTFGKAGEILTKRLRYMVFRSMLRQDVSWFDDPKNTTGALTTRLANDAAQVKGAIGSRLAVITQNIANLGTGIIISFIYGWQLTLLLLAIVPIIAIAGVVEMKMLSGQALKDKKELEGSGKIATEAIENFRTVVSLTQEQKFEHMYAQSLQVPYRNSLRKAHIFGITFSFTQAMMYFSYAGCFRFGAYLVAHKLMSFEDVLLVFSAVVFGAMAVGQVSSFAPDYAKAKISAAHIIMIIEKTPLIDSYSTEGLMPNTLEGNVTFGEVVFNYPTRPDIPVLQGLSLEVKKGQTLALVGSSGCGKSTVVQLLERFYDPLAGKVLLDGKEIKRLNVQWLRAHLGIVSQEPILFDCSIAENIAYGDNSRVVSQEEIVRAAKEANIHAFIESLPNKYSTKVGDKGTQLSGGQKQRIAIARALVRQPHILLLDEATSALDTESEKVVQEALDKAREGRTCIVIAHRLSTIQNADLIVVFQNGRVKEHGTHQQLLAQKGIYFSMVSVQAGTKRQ

[2] = Partition coefficient, log P of the compound; type: physicochemical; conditions: octanol/water
P-gp (ABCB1) = P-gp (ABCB1) (Homo sapiens, UniProt P08183); assay: as §1; type: cell-based, Mus musculus; conditions: mouse, NIH3T3 cells expressing human P-gp, probe DNR; read-out: Imax
Sequence of P-gp (ABCB1) (P08183 whole entry): as above

Structure (SMILES) | Ki ([1]; read-out: Ki) | logP ([2]; read-out: LogP) | Emax (P-gp (ABCB1)) | Ki ([1]; read-out: Log Ki (converted)) | logP [2]
CC(=O)O[C@H]1C[C@@](C)(O)[C@]23OC(C)(C)[C@H](C[C@H](OC(=O)c4ccco4)[C@]2(C)[C@H]1OC(C)=O)[C@H]3OC(C)=O | 100000 nM | 3.8 | – | – | –
CC(=O)O[C@H]1[C@H](OC(=O)c2cccnc2)[C@@]2(C)[C@@H](OC(=O)c3ccccc3)[C@@H](OC(=O)c3ccccc3)[C@@H]3C[C@]2(OC3(C)C)[C@](C)(O)[C@H]1OC(C)=O | 1450 nM | 7.5 | 100% | – | –
CC(=O)OC[C@]12[C@H](OC(=O)c3ccccc3)C(=O)[C@@H]3[C@@H](OC(C)=O)[C@]1(OC3(C)C)[C@H](C)C[C@H](OC(C)=O)[C@@H]2OC(C)=O | 2540 nM | 6.1 | 62.3% | – | –
CC(=O)OC[C@]12[C@H](OC(=O)c3ccccc3)C(=O)[C@@H]3[C@@H](OC(C)=O)[C@]1(OC3(C)C)[C@H](C)C[C@H](OC(C)=O)[C@@H]2O | 18400 nM | 5 | 91.7% | – | –
CC(=O)OC[C@]12[C@H](OC(C)=O)C(=O)[C@@H]3[C@@H](OC(C)=O)[C@]1(OC3(C)C)[C@H](C)C[C@H](OC(C)=O)[C@@H]2OC(=O)c1ccccc1 | 5740 nM | 6.1 | 96.4% | – | –
CC(=O)O[C@H]1C[C@@](C)(O)[C@]23OC(C)(C)[C@H]([C@H](OC(=O)c4ccccc4)[C@H](OC(=O)c4ccccc4)[C@]2(CO)[C@H]1OC(C)=O)[C@H]3OC(C)=O | 7040 nM | 6.9 | 73% | – | –
CC(=O)O[C@@H]1[C@H]2[C@@H](OC(=O)c3ccccc3)[C@@H](OC(=O)c3ccccc3)[C@]3(CO)[C@@H](OC(=O)c4ccccc4)[C@@H](OC(=O)c4ccccc4)C[C@@H](C)[C@@]13OC2(C)C | 1300 nM | – | 39.5% | 1660 nM | 11.5
CC(=O)O[C@H]1[C@@H](O)[C@H](OC(=O)c2ccccc2)[C@@]2(C)[C@@H](OC(=O)/C=C/c3ccccc3)C[C@@H]3C[C@]2(OC3(C)C)[C@@H]1C | 4250 nM | 6.2 | 63.7% | – | –
CC(=O)O[C@@H]1C[C@@](C)(O)[C@@]23C[C@@H](C[C@H](OC(=O)/C=C/c4ccccc4)[C@]2(C)[C@H]1OC(=O)c1ccccc1)C(C)(C)O3 | 7610 nM | 6.5 | 100% | – | –
CC(=O)OC[C@]12[C@H](OC(=O)c3ccccc3)C(=O)[C@@H]3[C@@H](OC(C)=O)[C@]1(OC3(C)C)[C@](C)(O)C[C@H](OC(=O)c1ccccc1)[C@@H]2OC(=O)c1ccccc1 | 1030 nM | – | 80% | – | 10
CC(=O)O[C@@H]1C[C@@](C)(O)[C@@]23C[C@@H](C[C@H](OC(=O)c4ccccc4)[C@]2(C)[C@H]1OC(=O)c1ccccc1)C(C)(C)O3 | 7590 nM | 6.6 | 89.8% | – | –
CC(=O)OC[C@]12[C@H](OC(C)=O)C(=O)[C@@H]3[C@@H](OC(C)=O)[C@]1(OC3(C)C)[C@H](C)C[C@H](OC(C)=O)[C@@H]2OC(C)=O | 9830 nM | 4 | 100% | – | –
C[C@@H]1[C@@H](O)[C@@H](O)[C@H](OC(=O)c2ccccc2)[C@@]2(C)[C@@H](OC(=O)/C=C/c3ccccc3)C[C@@H]3C[C@]12OC3(C)C | 6940 nM | 6 | 76.6% | – | –
CC(=O)OC[C@]12[C@@H](OC(=O)c3ccccc3)C[C@@H]3[C@@H](OC(=O)c4ccccc4)[C@]1(OC3(C)C)[C@](C)(O)C[C@H](OC(=O)c1cccnc1)[C@@H]2OC(C)=O | 580 nM | 8.2 | 100% | – | –
CC(=O)O[C@H]1[C@@H]2C[C@@]3(OC2(C)C)[C@](C)([C@H]1OC(=O)c1ccccc1)[C@@H](OC(=O)c1cccnc1)[C@H](OC(C)=O)[C@H](OC(=O)c1ccccc1)[C@@]3(C)O | 1360 nM | 7.8 | 100% | – | –
CC(=O)O[C@H]1[C@H](OC(=O)c2ccccc2)[C@@]2(C)[C@@H](OC(=O)c3ccccc3)[C@@H](OC(=O)c3ccccc3)[C@@H]3C[C@]2(OC3(C)C)[C@](C)(O)[C@H]1OC(C)=O | 730 nM | 8.8 | 98.7% | – | –
CC(=O)OC[C@]12[C@H](OC(=O)c3ccccc3)C(=O)[C@@H]3[C@@H](O)[C@]1(OC3(C)C)[C@](C)(O)C[C@H](OC(C)=O)[C@@H]2OC(=O)c1ccccc1 | 3970 nM | 7.2 | 74.4% | – | –
CC(=O)O[C@@H]1[C@H](OC(C)=O)[C@@H](C)[C@@]23C[C@@H](C[C@H](OC(=O)/C=C/c4ccccc4)[C@]2(C)[C@H]1OC(=O)c1ccccc1)C(C)(C)O3 | 2720 nM | 7.4 | 75.8% | – | –
CC(=O)O[C@H]1[C@H](OC(=O)/C=C/c2ccccc2)[C@@]2(C)[C@@H](OC(=O)c3ccccc3)C[C@@H]3C[C@]2(OC3(C)C)[C@](C)(O)[C@H]1OC(=O)c1cccnc1 | 2070 nM | 7.6 | 95.2% | – | –

Structure (SMILES) | Ki ([1]; read-out: Ki) | logP ([2]; read-out: LogP) | Emax (P-gp (ABCB1)) | Ki ([1]; read-out: Log Ki (converted)) | logP [2]
CC(=O)O[C@H]1[C@H](OC(=O)c2ccccc2)[C@@]2(C)[C@@H](OC(=O)/C=C/c3ccccc3)C[C@@H]3[C@@H](OC(C)=O)[C@]2(OC3(C)C)[C@](C)(O)[C@H]1OC(=O)c1cccnc1 | 25000 nM | 8 | 100% | – | –
CC(=O)O[C@H]1[C@H](OC(=O)c2ccccc2)[C@@]2(C)[C@@H](OC(=O)c3ccccc3)C[C@@H]3[C@@H](OC(C)=O)[C@]2(OC3(C)C)[C@](C)(O)[C@H]1OC(=O)c1cccnc1 | 3750 nM | 8 | 98.8% | – | –
CC(=O)O[C@H]1[C@@H](OC(=O)c2ccco2)C[C@@](C)(O)[C@]23OC(C)(C)[C@H](C[C@H](OC(=O)c4ccco4)[C@]12C)[C@H]3OC(=O)c1ccco1 | 2190 nM | 6.5 | 80.5% | – | –
CC(=O)OC[C@]12[C@H](OC(C)=O)[C@H](OC(C)=O)[C@@H]3[C@@H](OC(C)=O)[C@]1(O[C@@]3(C)COC(C)=O)[C@](C)(O)[C@@H](OC(C)=O)[C@H](OC(C)=O)[C@@H]2OC(C)=O | 6970 nM | 3.6 | 31% | – | –
CC(=O)OC[C@]12[C@@H](OC(=O)c3ccccc3)[C@@H](OC(=O)c3ccccc3)[C@@H]3[C@@H](OC(C)=O)[C@]1(OC3(C)C)[C@](C)(O)C[C@H](OC(C)=O)[C@@H]2OC(C)=O | 1740 nM | 7.6 | 97% | – | –
CC(=O)O[C@@H]1[C@H]2[C@H](O)[C@H](OC(=O)c3ccccc3)[C@]3(C)[C@@H](OC(=O)c4ccccc4)[C@@H](OC(=O)c4ccccc4)C[C@@](C)(O)[C@@]13OC2(C)C | 1210 nM | 8.4 | 100% | – | –
CC(=O)O[C@H]1[C@@H]2[C@@H](OC(C)=O)[C@]3(OC2(C)C)[C@H](C)C[C@H](OC(=O)c2cccnc2)[C@H](OC(=O)c2ccccc2)[C@@]3(C)[C@H]1OC(=O)c1ccccc1 | 7720 nM | 8.7 | 92.3% | – | –
CC(=O)O[C@H]1[C@@H]2[C@@H](OC(C)=O)[C@@]3(OC2(C)C)[C@](C)([C@H]1OC(=O)c1ccccc1)[C@@H](OC(=O)c1ccccc1)[C@@H](OC(=O)c1ccccc1)C[C@@]3(C)O | 11300 nM | – | 80.7% | – | 9.4
CC(=O)OC[C@]12[C@H](OC(=O)c3ccccc3)[C@H](OC(=O)c3ccccc3)[C@@H]3[C@@H](OC(C)=O)[C@]1(OC3(C)C)[C@H](C)C[C@H](OC(=O)c1ccccc1)[C@@H]2OC(C)=O | 33800 nM | – | 100% | – | 10.3
CC(=O)OC[C@]12[C@H](OC(=O)c3ccccc3)[C@H](OC(=O)c3ccccc3)[C@@H]3[C@@H](OC(C)=O)[C@]1(OC3(C)C)[C@H](C)C[C@H](OC(=O)c1ccccc1)[C@@H]2OC(=O)c1ccccc1 | 1980 nM | – | 29.3% | – | –
CC(=O)O[C@H]1C[C@@](C)(O)[C@]23OC(C)(C)[C@H]([C@H](OC(=O)c4ccccc4)[C@H](OC(=O)c4ccccc4)[C@]2(C)[C@H]1OC(=O)c1ccccc1)[C@H]3OC(C)=O | 910 nM | – | 84.9% | – | 9.2
CC(=O)OC[C@]12[C@H](OC(C)=O)C(=O)[C@@H]3[C@@H](OC(C)=O)[C@]1(OC3(C)C)[C@](C)(O)[C@@H](OC(C)=O)[C@H](OC(C)=O)[C@@H]2OC(=O)c1ccccc1 | 6520 nM | 6 | 53.9% | 302 nM | –
CC(=O)O[C@@H]1[C@H](O)[C@@H](C)[C@@]23C[C@@H](C[C@H](OC(=O)/C=C/c4ccccc4)[C@]2(C)[C@H]1OC(=O)c1ccccc1)C(C)(C)O3 | 8460 nM | 6.3 | 82.9% | – | –
CC(=O)OC[C@]12[C@H](OC(=O)c3ccccc3)C(=O)[C@@H]3[C@@H](OC(C)=O)[C@]1(OC3(C)C)[C@](C)(O)C[C@H](OC(C)=O)[C@@H]2OC(=O)c1ccccc1 | 3010 nM | 7.7 | 81.1% | – | –
CC(=O)O[C@H]1[C@@H]2C[C@@]3(OC2(C)C)[C@](C)([C@H]1OC(=O)c1ccccc1)[C@@H](OC(=O)c1ccccc1)[C@H](OC(C)=O)[C@H](OC(C)=O)[C@@]3(C)O | 1270 nM | 6.8 | 88.7% | – | –
CC(=O)OC[C@@]12[C@@H](OC(=O)c3ccccc3)CC[C@@](C)(O)[C@]13OC(C)(C)[C@H]([C@@H](OC(=O)c1ccccc1)[C@H]2OC(=O)c1ccccc1)[C@H]3OC(C)=O | 1220 nM | – | 100% | – | 9.6
CC(=O)OC[C@]12[C@@H](OC(=O)c3ccccc3)[C@@H](OC(=O)c3ccccc3)[C@@H]3[C@@H](OC(C)=O)[C@]1(OC3(C)C)[C@H](C)C[C@H](OC(C)=O)[C@@H]2OC(C)=O | 1710 nM | 8.3 | 86.2% | – | –
CCCCCO[C@@H]1[C@@H]2[C@@H](OC(C)=O)[C@@]3(OC2(C)C)[C@@](COC(C)=O)([C@@H](OC(C)=O)CC[C@@]3(C)O)[C@@H]1OC(=O)c1ccccc1 | 1830 nM | 7 | 87.7% | – | –
CC(=O)OC[C@]12[C@H](OC(=O)c3ccccc3)C(=O)[C@@H]3[C@@H](OC(C)=O)[C@]1(OC3(C)C)[C@H](C)C[C@H](OC(C)=O)[C@@H]2OC(=O)c1ccccc1 | 1630 nM | 8.1 | 81.6% | – | –
